pIC50: −log10 of the molar value. Numbered stars: 1 amine (or outer) side, 2 acyl side, 3 side chain; on linkers, the order of the positions; unused ones are H or OH. Bridge positions count the residues as written; N and C are the ends. Square brackets hold non-standard residues; d marks the D form. Peptide text beside a SMILES is read from it. * marks the point of attachment. hPhe(3-Cl-4-CF3) = N[C@@H](CCc1ccc(C(F)(F)F)c(Cl)c1)C(=O)O; NMePhe(4-CF3) = CN[C@@H](Cc1ccc(C(F)(F)F)cc1)C(=O)O; hPhe(4-CF3) = N[C@@H](CCc1ccc(C(F)(F)F)cc1)C(=O)O; dβ3h(hPhe) = O=C(C[C@@H](CCc1ccccc1)N[*:1])[*:2]; NMePhe(4-Cl) = CN[C@@H](Cc1ccc(Cl)cc1)C(=O)O; NMePhe(4-Me) = CN[C@@H](Cc1ccc(C)cc1)C(=O)O; NMedβ3hAla = C[C@H](CC(=O)[*:2])N(C)[*:1]; NMeGly(cPent) = CN[C@H](C(=O)O)C1CCCC1; dβ3hPip = O=C(C[C@H]1CCCCN1[*:1])[*:2]; NMeGly(cBu) = CN[C@H](C(=O)O)C1CCC1; NMeCha = CN[C@@H](CC1CCCCC1)C(=O)O; Hyp = O=C(O)[C@@H]1C[C@@H](O)CN1; NEtLeu = CCN[C@@H](CC(C)C)C(=O)O; NMeF = CN[C@@H](Cc1ccccc1)C(=O)O; NMeI = CC[C@H](C)[C@H](NC)C(=O)O; N(CH2CH2)2CF2 = FC1(F)CCN(*)CC1; NMeD = CN[C@@H](CC(=O)O)C(=O)O; NMeL = CN[C@@H](CC(C)C)C(=O)O; NMeV = CN[C@H](C(=O)O)C(C)C; d(β3hA) = C[C@@H](N)CC(=O)O; NMeAbu = CC[C@H](NC)C(=O)O; Morpholide = C1CN(*)CCO1; NMeA = CN[C@@H](C)C(=O)O; NMeAib = CNC(C)(C)C(=O)O; Piperidide = C1CCN(*)CC1; Pyrrolidide = C1CCN(*)C1; Ac5c = NC1(C(=O)O)CCCC1; Aze = O=C(O)[C@@H]1CCN1; Aib = CC(C)(N)C(=O)O; Sar = CNCC(=O)O
The compounds below were run against protein-protein interaction between Kras and SOS1 (biotin-tagged human Kras loaded with GDP, His-tagged human SOS1) (Homo sapiens (Human), UniProt P01116, G12D) (assay: Protein-protein interaction inhibition between Kras and SOS1 (KrasG12D-SOS PPI) using AlphaScreen). Details: AlphaScreen; biotin-tagged human Kras loaded with GDP, His-tagged human SOS1; read-out: KRAS G12D-SOS PPI IC50.
Type: biochemical
`CC[C@H](C)[C@@H]1NC(=O)[C@H](CC(C)C)N(CC)C(=O)C[C@@H](C(=O)N2CCCC2)N(C)C(=O)[C@H]([C@@H](C)CC)N(C)C(=O)C2(CCCC2)NC(=O)[C@@H]2CCCN2C(=O)[C@H](CCc2ccc(C(F)(F)F)c(Cl)c2)NC(=O)CN(C)C(=O)[C@H](Cc2ccc(C(F)(F)F)cc2)N(C)C(=O)[C@@H]2CCN2C(=O)[C@H](C)NC1=O` [Compound 1146] ([NEtLeu]IA[Aze][NMePhe(4-CF3)][Sar][hPhe(3-Cl-4-CF3)]P[Ac5c][NMeI][NMeD]-Pyrrolidide; lactam N-11) was tested, and the pIC50 was 8.72. For `CC[C@H](C)[C@@H]1NC(=O)[C@H](CC(C)C)N(C)C(=O)C[C@@H](CCc2ccccc2)NC(=O)[C@H]([C@@H](C)CC)N(C)C(=O)C2(CCCC2)NC(=O)[C@@H]2CCCN2C(=O)[C@H](CCc2ccc(C(F)(F)F)c(Cl)c2)NC(=O)CN(C)C(=O)[C@H](Cc2ccc(C)cc2)N(C)C(=O)[C@@H]2CCN2C(=O)[C@H](C)N(C)C1=O` [Compound 1874] (cyclo([Ac5c][NMeI][dβ3h(hPhe)][NMeL]I[NMeA][Aze][NMePhe(4-Me)][Sar][hPhe(3-Cl-4-CF3)]P)), the pIC50 was 6.40. `CCO[C@@H]1C[C@H]2C(=O)NC3(CCCC3)C(=O)N(C)[C@@H](CC(C)C)C(=O)N(C)[C@H](C(=O)N3CCCC3)CC(=O)N(C)[C@@H](CC(C)C)C(=O)N[C@@H]([C@@H](C)CC)C(=O)N(C)CC(=O)N(C)CC(=O)N(C)[C@@H](CC3CCCCC3)C(=O)N(C)CC(=O)N[C@@H](CCc3ccc(C(F)(F)F)c(Cl)c3)C(=O)N2C1` [Compound 1748] ([NMeL]I[Sar][Sar][NMeCha][Sar][hPhe(3-Cl-4-CF3)][Hyp](Et)[Ac5c][NMeL][NMeD]-Pyrrolidide; lactam N-11) gave a pIC50 of 9.21. `CC[C@H](C)[C@@H]1NC(=O)[C@H](C(C)C)N(C)C(=O)C[C@H]2CCCCN2C(=O)[C@H](CC(C)C)N(C)C(=O)C2(CCCC2)NC(=O)[C@H](CC(C)C)N(C)C(=O)[C@H](CCc2ccc(C(F)(F)F)cc2)NC(=O)CN(C)C(=O)[C@H](Cc2ccc(Cl)cc2)N(C)C(=O)CN(C)C(=O)CN(C)C1=O` [Compound 189] (cyclo([Ac5c][NMeL][dβ3hPip][NMeV]I[Sar][Sar][NMePhe(4-Cl)][Sar][hPhe(4-CF3)][NMeL])) showed a pIC50 of 6.96. `CC[C@H](C)[C@@H]1NC(=O)[C@H](CC(C)C)N(CC)C(=O)C[C@@H](C(=O)N2CCOCC2)N(C)C(=O)[C@H](C2CCCC2)N(C)C(=O)C2(CCCC2)NC(=O)[C@@H]2CCCN2C(=O)[C@H](CCc2ccc(C(F)(F)F)c(Cl)c2)NC(=O)CN(C)C(=O)[C@H](CC2CCCCC2)N(C)C(=O)[C@@H]2CCN2C(=O)[C@H](C)NC1=O` [Compound 1266] ([NEtLeu]IA[Aze][NMeCha][Sar][hPhe(3-Cl-4-CF3)]P[Ac5c][NMeGly(cPent)][NMeD]-Morpholide; lactam N-11) showed a pIC50 of 8.92. `CC[C@H](C)[C@@H]1NC(=O)[C@H](CC(C)C)N(C)C(=O)C[C@@H](C(=O)N2CCCCC2)N(C)C(=O)[C@H](C2CCCC2)N(C)C(=O)C2(CCCC2)NC(=O)[C@@H]2CCCN2C(=O)[C@H](CCc2ccc(C(F)(F)F)c(Cl)c2)NC(=O)CN(C)C(=O)[C@H](C2CCCC2)N(C)C(=O)[C@@H]2CCN2C(=O)[C@H](C)N(C)C1=O` [Compound 182] ([NMeL]I[NMeA][Aze][NMeGly(cPent)][Sar][hPhe(3-Cl-4-CF3)]P[Ac5c][NMeGly(cPent)][NMeD]-Piperidide; lactam N-11) showed a pIC50 of 9.01. `CC[C@H](C)[C@@H]1NC(=O)[C@H](CC(C)C)N(C)C(=O)C[C@@H](C(=O)N2CCCCC2)N(C)C(=O)[C@H](CC(C)C)N(C)C(=O)C2(CCCC2)NC(=O)[C@@H]2CCCN2C(=O)[C@H](CCc2ccc(C(F)(F)F)c(Cl)c2)NC(=O)CN(C)C(=O)[C@H](CC2CCCCC2)N(C)C(=O)[C@@H]2CCN2C(=O)[C@H](C)N(C)C1=O` [Compound 1657] ([NMeL]I[NMeA][Aze][NMeCha][Sar][hPhe(3-Cl-4-CF3)]P[Ac5c][NMeL][NMeD]-Piperidide; lactam N-11) showed a pIC50 of 8.55. With `CC[C@H](C)[C@@H]1NC(=O)[C@H](CC2CCCCC2)N(C)C(=O)C[C@@H](C)N(C)C(=O)[C@H](CC(C)C)NC(=O)C(C)(C)N(C)C(=O)[C@H](CC(C)C)NC(=O)[C@H](CCc2ccc(C(F)(F)F)cc2)NC(=O)CN(C)C(=O)[C@H](Cc2ccc(Cl)cc2)N(C)C(=O)CN(C)C(=O)CN(C)C1=O` [Compound 595] (cyclo(I[Sar][Sar][NMePhe(4-Cl)][Sar][hPhe(4-CF3)]L[NMeAib]L[NMedβ3hAla][NMeCha])) the pIC50 was 6.54. With `CC[C@H](C)[C@@H]1NC(=O)[C@H](C)N(C)C(=O)C[C@@H](C)NC(=O)[C@H](C(C)C)N(C)C(=O)[C@H](Cc2ccccc2)N(C)C(=O)[C@H](CC(C)C)N(C)C(=O)[C@H](CCc2ccc(C(F)(F)F)cc2)NC(=O)CN(C)C(=O)[C@H](Cc2ccc(Cl)cc2)N(C)C(=O)CN(C)C(=O)CN(C)C1=O` [Compound 51] (cyclo(I[Sar][Sar][NMePhe(4-Cl)][Sar][hPhe(4-CF3)][NMeL][NMeF][NMeV][d(β3hA)][NMeA])) the pIC50 was 7.05. With `CC[C@H](C)[C@@H]1NC(=O)[C@H](CC(C)C)N(C)C(=O)C[C@@H](C)NC(=O)[C@H](C(C)C)N(C)C(=O)C2(CCCC2)NC(=O)[C@H](CC(=O)N2CCC(F)(F)CC2)N(C)C(=O)[C@H](CCc2ccc(C(F)(F)F)c(Cl)c2)NC(=O)CN(C)C(=O)[C@H](CC2CCCCC2)N(C)C(=O)CN(C)C(=O)CN(C)C1=O` [Compound 452] (cyclo([Ac5c][NMeV][d(β3hA)][NMeL]I[Sar][Sar][NMeCha][Sar][hPhe(3-Cl-4-CF3)][NMeD](N(CH2CH2)2CF2))) the pIC50 was 7.10. Compound `CC[C@H](C)[C@@H]1NC(=O)[C@H](C)N(C)C(=O)C[C@@H](C)NC(=O)[C@H](C2CCCC2)N(C)C(=O)C2(CCCC2)NC(=O)[C@@H]2CCCN2C(=O)[C@H](CCc2ccc(C(F)(F)F)c(Cl)c2)NC(=O)CN(C)C(=O)[C@H](Cc2ccc(C)cc2)N(C)C(=O)[C@@H]2CCN2C(=O)[C@H](C)N(C)C1=O` [Compound 1514] (cyclo([Ac5c][NMeGly(cPent)][d(β3hA)][NMeA]I[NMeA][Aze][NMePhe(4-Me)][Sar][hPhe(3-Cl-4-CF3)]P)) has a pIC50 of 9.00. `CC[C@H](C)[C@@H]1NC(=O)[C@H](CC(C)C)N(C)C(=O)C[C@@H](C(=O)N2CCCCC2)N(C)C(=O)[C@H](C(C)C)N(C)C(=O)C2(CCCC2)NC(=O)[C@@H]2CCCN2C(=O)[C@H](CCc2ccc(C(F)(F)F)c(Cl)c2)NC(=O)CN(C)C(=O)[C@H](C2CCC2)N(C)C(=O)[C@@H]2CCN2C(=O)[C@H](C)N(C)C1=O` [Compound 446] ([NMeL]I[NMeA][Aze][NMeGly(cBu)][Sar][hPhe(3-Cl-4-CF3)]P[Ac5c][NMeV][NMeD]-Piperidide; lactam N-11) showed a pIC50 of 8.74. For `CC[C@H](C)[C@@H]1NC(=O)[C@H](CC(C)C)N(C)C(=O)C[C@@H](C)NC(=O)[C@H](C(C)C)N(C)C(=O)C2(CCCC2)NC(=O)[C@@H]2CCCN2C(=O)[C@H](CCc2ccc(C(F)(F)F)c(Cl)c2)NC(=O)CN(C)C(=O)[C@H](CC2CCCCC2)N(C)C(=O)[C@@H]2CCN2C(=O)[C@H](CC)N(C)C1=O` [Compound 1593] (cyclo([Ac5c][NMeV][d(β3hA)][NMeL]I[NMeAbu][Aze][NMeCha][Sar][hPhe(3-Cl-4-CF3)]P)), the pIC50 was 6.85. In the case of `CC[C@H](C)[C@@H]1NC(=O)[C@H](CC(C)C)N(C)C(=O)C[C@@H](C)NC(=O)[C@H](CC(C)C)N(C)C(=O)C(C)(C)NC(=O)[C@H](CC(C)C)N(C)C(=O)[C@H](CCc2ccc(C(F)(F)F)cc2)NC(=O)CN(C)C(=O)[C@H](CC2CCCCC2)N(C)C(=O)CN(C)C(=O)CN(C)C1=O` [Compound 839] (cyclo([Aib][NMeL][d(β3hA)][NMeL]I[Sar][Sar][NMeCha][Sar][hPhe(4-CF3)][NMeL])), the pIC50 was 6.66.
